Literature values, collected in US20120245552A1, “Combination Therapy” (POP TEST CORTISOL LLC, priority 2011, published 2012).

Tests used:
GCR = target: T1, GCR (Homo sapiens, UniProt P04150); conditions: cited from earlier work
T1 sequence (P04150 1-777): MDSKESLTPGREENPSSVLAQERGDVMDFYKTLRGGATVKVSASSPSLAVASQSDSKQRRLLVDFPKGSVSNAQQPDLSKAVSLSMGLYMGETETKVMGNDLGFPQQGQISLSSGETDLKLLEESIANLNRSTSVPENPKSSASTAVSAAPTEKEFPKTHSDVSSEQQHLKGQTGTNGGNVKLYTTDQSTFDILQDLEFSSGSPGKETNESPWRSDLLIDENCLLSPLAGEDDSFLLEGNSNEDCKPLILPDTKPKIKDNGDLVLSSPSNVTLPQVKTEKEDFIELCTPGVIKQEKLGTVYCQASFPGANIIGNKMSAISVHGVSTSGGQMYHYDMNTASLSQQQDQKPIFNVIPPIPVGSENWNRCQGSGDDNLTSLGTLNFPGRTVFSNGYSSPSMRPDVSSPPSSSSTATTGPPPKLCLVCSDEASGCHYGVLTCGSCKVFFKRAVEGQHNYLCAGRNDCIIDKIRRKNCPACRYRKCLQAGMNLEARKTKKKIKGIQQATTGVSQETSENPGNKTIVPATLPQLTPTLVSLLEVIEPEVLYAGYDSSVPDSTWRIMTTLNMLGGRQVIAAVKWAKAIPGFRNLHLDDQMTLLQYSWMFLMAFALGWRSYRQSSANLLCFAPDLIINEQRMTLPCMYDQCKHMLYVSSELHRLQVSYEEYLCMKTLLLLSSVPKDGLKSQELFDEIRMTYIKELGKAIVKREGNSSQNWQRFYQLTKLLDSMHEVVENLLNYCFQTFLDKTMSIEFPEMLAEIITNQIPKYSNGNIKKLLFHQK

[1] = tested on: other related steroidal hormone receptors (such as those for estrogen and progesterone); conditions: cited from earlier work
[2] = phase I and phase II clinical trials; cited from earlier work

CC#C[C@]1(O)CC[C@H]2[C@@H]3CCC4=CC(=O)CCC4=C3[C@@H](c3ccc4c(c3)OCO4)C[C@@]21C [ORG 34517, (11β,17β)-11-(1,3-benzodioxol-5-yl)-17-hydroxy-17-(1-propynyl)estra-4,9-dien-3-one]
GCR binding affinity (GCR): high
cross-binding to other related steroidal hormone receptors [1]: without significant cross-binding
significant toxicities and side effects [2]: none were identified
